Literature values as cited in paper PMC10010643 (Cancer Chemotherapy and Pharmacology, 2023).

Experiments:
galectin-3 [1] = test system: galectin-3; set-up: method as in PMID 33214209; conditions: inhaled; cited from earlier work
galectin-3 [2] = conditions: cited from earlier work
[3] = set-up: method as in PMID 36154172; conditions: cited from earlier work

OC[C@H]1O[C@@H](S[C@@H]2O[C@H](CO)[C@H](O)[C@H](n3cc(-c4cccc(F)c4)nn3)[C@H]2O)[C@H](O)[C@@H](n2cc(-c3cccc(F)c3)nn2)[C@H]1O [GB0139]
Galectin-3 expression (galectin-3 [1]): suppressed galectin-3 expression | Plasma biomarkers associated with IPF disease progression (galectin-3 [1]): decreased plasma biomarkers associated with IPF disease progression | Binding affinity for galectin-3 (galectin-3 [2]): high binding affinity | Elimination if administered systemically [3]: prompt elimination | Intestinal absorption [3]: poor intestinal absorption
